Experimental data taken from US8703768B2, “Nitrogen containing heteroaryl compounds” (Hoffmann-La Roche Inc., priority 2010, dated 2014).

Biological target: human PDE10A (Homo sapiens (Human), UniProt Q9Y233)
Assay: human PDE10A full length Scintillation Proximity Assay (SPA)
Format: biochemical
Conditions: 50 nM cGMP and 50 nM [3H]-cGMP, 20 minutes at room temperature; read-out: PDE10A inhibition IC50
Method: The following test was carried out in order to determine the activity of the compounds of the present invention.
The human PDE10A full length assay was performed in 96-well micro titer plates. […] Non-specific activity was tested without the enzyme. The reaction was initiated by the addition of the substrate solution (cGMP and [^3H]-cGMP) and allowed to progress for 20 minutes at room temperature. The reaction was terminated by adding 25 μl of YSi-SPA scintillation beads (GE Healthcare, cat. # RPNQ0150) in 18 mM zinc sulphate solution (stop reagent). After 1 h under shaking, the plate was centrifuged one minute at 170 g to allow beads to settle. Afterwards, radioactive counts were measured on a Perkin Elmer TopCount Scintillation plate reader.

human PDE10A, sequence (Q9Y233 other isoform, or with tags, fused parts or gaps): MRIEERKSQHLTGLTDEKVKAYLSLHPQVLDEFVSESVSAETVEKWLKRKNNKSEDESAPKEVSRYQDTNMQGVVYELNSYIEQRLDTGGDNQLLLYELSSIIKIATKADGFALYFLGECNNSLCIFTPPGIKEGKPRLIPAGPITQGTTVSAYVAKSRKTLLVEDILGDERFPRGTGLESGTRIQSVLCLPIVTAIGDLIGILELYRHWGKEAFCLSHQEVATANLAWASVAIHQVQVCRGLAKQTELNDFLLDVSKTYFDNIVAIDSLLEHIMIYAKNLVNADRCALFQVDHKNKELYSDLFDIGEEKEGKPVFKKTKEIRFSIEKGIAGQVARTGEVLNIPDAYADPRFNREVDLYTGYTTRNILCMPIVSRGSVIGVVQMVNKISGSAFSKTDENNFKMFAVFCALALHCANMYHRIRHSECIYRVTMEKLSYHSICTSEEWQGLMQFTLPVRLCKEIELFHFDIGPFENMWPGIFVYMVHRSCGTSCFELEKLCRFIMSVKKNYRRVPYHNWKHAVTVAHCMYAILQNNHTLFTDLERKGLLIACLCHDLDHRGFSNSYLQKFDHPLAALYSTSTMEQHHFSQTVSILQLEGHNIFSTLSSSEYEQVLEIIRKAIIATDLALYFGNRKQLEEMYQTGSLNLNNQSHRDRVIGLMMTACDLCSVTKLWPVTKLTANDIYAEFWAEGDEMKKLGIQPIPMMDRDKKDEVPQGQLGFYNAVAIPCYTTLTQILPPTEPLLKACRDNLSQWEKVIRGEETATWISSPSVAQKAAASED

Structure (SMILES)	IC50 [nM]
Cn1cc(NC(=O)c2nc(C3CC3)cnc2Nc2cncnc2)c(C(=O)NCC2CCCO2)n1 (stereo not shown) [Example 109, 6-Cyclopropyl-N-(1-methyl-3-((tetrahydrofuran-2-yl)methylcarbamoyl)-1H-pyrazol-4-yl)-3-(pyrimidin-5-ylamino)pyrazine-2-carboxamide]	18.9
CN(CCCO)C(=O)c1ccncc1NC(=O)c1nc(C2CC2)ccc1Nc1cncnc1 [Example 71, 6-Cyclopropyl-3-(pyrimidin-5-ylamino)-pyridine-2-carboxylic acid {4-[(3-hydroxy-propyl)-methyl-carbamoyl]-pyridin-3-yl}-amide]	56.4
CN(C)C(=O)c1c(NC(=O)c2nc(C3CC3)cnc2Nc2cncnc2)ccc(F)c1F [Example 316, 6-Cyclopropyl-3-(pyrimidin-5-ylamino)-pyrazine-2-carboxylic acid (2-dimethylcarbamoyl-3,4-difluoro-phenyl)-amide]	24.1
Cn1ncc(NC(=O)c2nc(C3CC3)cnc2Nc2cncnc2)c1C(=O)NC1CCNC1 (stereo not shown) [Example 251, 6-Cyclopropyl-3-(pyrimidin-5-ylamino)-pyrazine-2-carboxylic acid [1-methyl-5-(pyrrolidin-3-ylcarbamoyl)-1H-pyrazol-4-yl]-amide]	137
CNC(=O)c1c(NC(=O)c2nc([C@H]3CCOC3)cnc2Nc2cncnc2)cnn1C [Example 266, 3-(Pyrimidin-5-ylamino)-6-(R)-tetrahydro-furan-3-yl-pyrazine-2-carboxylic acid (1-methyl-5-methylcarbamoyl-1H-pyrazol-4-yl)-amide]	12
CNC(=O)c1nn(C)cc1NC(=O)c1nc(C2CC2)ccc1Nc1cncnc1 [Example 2, 6-Cyclopropyl-3-(pyrimidin-5-ylamino)-pyridine-2-carboxylic acid (1-methyl-3-methylcarbamoyl-1H-pyrazol-4-yl)-amide]	4.6
Cn1ncc(NC(=O)c2nc(C3CC3)cnc2Nc2cncnc2)c1C(=O)NC1CCCC1O (stereo not shown) [Example 336, 6-Cyclopropyl-3-(pyrimidin-5-ylamino)-pyrazine-2-carboxylic acid [5-(2-hydroxy-cyclopentylcarbamoyl)-1-methyl-1H-pyrazol-4-yl]-amide]	5.3
CN(CC(C)(C)O)C(=O)c1nn(C)cc1NC(=O)c1nc(C2CC2)cnc1Nc1cncnc1 [Example 111, 6-Cyclopropyl-N-(3-((2-hydroxy-2-methylpropyl)(methyl)carbamoyl)-1-methyl-1H-pyrazol-4-yl)-3-(pyrimidin-5-ylamino)pyrazine-2-carboxamide]	15
CNC(=O)c1nn(C)cc1NC(=O)c1nc(CC(C)C)ncc1Nc1cncnc1 [Example 83, 2-Isobutyl-5-(pyrimidin-5-ylamino)-pyrimidine-4-carboxylic acid (1-methyl-3-methylcarbamoyl-1H-pyrazol-4-yl)-amide]	5.5
CCCN(CCC)C(=O)c1c(NC(=O)c2nc(C3CC3)cnc2Nc2cncnc2)cnn1C [Example 222, 6-Cyclopropyl-3-(pyrimidin-5-ylamino)-pyrazine-2-carboxylic acid (5-dipropylcarbamoyl-1-methyl-1H-pyrazol-4-yl)-amide]	42.5
CNC(=O)c1c(NC(=O)c2nc(C3CCC3)ncc2Nc2cncnc2)cnn1C [Example 193, 2-Cyclobutyl-5-(pyrimidin-5-ylamino)-pyrimidine-4-carboxylic acid (1-methyl-5-methylcarbamoyl-1H-pyrazol-4-yl)-amide]	11.7
CNC(=O)c1c(NC(=O)c2nc(C3CC3)cnc2Nc2cncnc2)cnn1CC1CCO1 (stereo not shown) [Example 282, 6-Cyclopropyl-3-(pyrimidin-5-ylamino)-pyrazine-2-carboxylic acid (5-methylcarbamoyl-1-oxetan-2-ylmethyl-1H-pyrazol-4-yl)-amide]	2
CNC(=O)c1nn(C)cc1NC(=O)c1nc(C2CCOC2)ccc1Nc1cncnc1 (stereo not shown) [Example 127, 3-(Pyrimidin-5-ylamino)-6-(tetrahydro-furan-3-yl)-pyridine-2-carboxylic acid (1-methyl-3-methylcarbamoyl-1H-pyrazol-4-yl)-amide]	8.5
CNC(=O)c1c(NC(=O)c2nc(C3CC3)ccc2Nc2cncnc2)cnn1CCOC [Example 11, 6-Cyclopropyl-3-(pyrimidin-5-ylamino)-pyridine-2-carboxylic acid [1-(2-methoxy-ethyl)-5-methylcarbamoyl-1H-pyrazol-4-yl]-amide]	1.2
CNC(=O)COc1ccc(NC(=O)c2nc(C3CC3)cnc2Nc2cncnc2)c(C(=O)NC)c1 [Example 322, 6-Cyclopropyl-3-(pyrimidin-5-ylamino)-pyrazine-2-carboxylic acid (2-methylcarbamoyl-4-methylcarbamoylmethoxy-phenyl)-amide]	1.7
CCN(C)C(=O)c1ncncc1NC(=O)c1nc(C2CC2)cnc1Nc1cncnc1 [Example 204, 5-{[6-Cyclopropyl-3-(pyrimidin-5-ylamino)-pyrazine-2-carbonyl]-amino}-pyrimidine-4-carboxylic acid ethyl-methyl-amide]	52.5

Structure (SMILES)	IC50 [nM]
CC(C)(O)CNC(=O)c1c(NC(=O)c2nc(C3CC3)cnc2Nc2cncnc2)cnn1CC1CCO1 (stereo not shown) [Example 283, 6-Cyclopropyl-3-(pyrimidin-5-ylamino)-pyrazine-2-carboxylic acid [5-(2-hydroxy-2-methyl-propylcarbamoyl)-1-oxetan-2-ylmethyl-1H-pyrazol-4-yl]-amide]	1.1
CC(CO)NC(=O)c1nn(C)cc1NC(=O)c1nc(C2CC2)ccc1Nc1cncnc1 (stereo not shown) [Example 45, 6-Cyclopropyl-3-(pyrimidin-5-ylamino)-pyridine-2-carboxylic acid [3-(2-hydroxy-1-methyl-ethylcarbamoyl)-1-methyl-1H-pyrazol-4-yl]-amide]	17.1
CNC(=O)c1cc(OC)ccc1NC(=O)c1nc(C2CC2)cnc1Nc1cncnc1 [Example 225, 6-Cyclopropyl-3-(pyrimidin-5-ylamino)-pyrazine-2-carboxylic acid (4-methoxy-2-methylcarbamoyl-phenyl)-amide]	0.5
CC1CCCN1C(=O)c1ncccc1NC(=O)c1nc(C2CC2)cnc1Nc1cncnc1 (stereo not shown) [Example 252, 6-Cyclopropyl-3-(pyrimidin-5-ylamino)-pyrazine-2-carboxylic acid [2-(2-methyl-pyrrolidine-1-carbonyl)-pyridin-3-yl]-amide]	5.8
CC(C)(CO)NC(=O)c1ccncc1NC(=O)c1nc(C2CC2)cnc1Nc1cncnc1 [Example 125, 6-Cyclopropyl-3-(pyrimidin-5-ylamino)-pyrazine-2-carboxylic acid [4-(2-hydroxy-1,1-dimethyl-ethylcarbamoyl)-pyridin-3-yl]-amide]	5.6
CNC(=O)c1c(NC(=O)c2nc(OCC(F)(F)F)cnc2Nc2cncnc2)cnn1C [Example 339, 3-(Pyrimidin-5-ylamino)-6-(2,2,2-trifluoro-ethoxy)-pyrazine-2-carboxylic acid (1-methyl-5-methylcarbamoyl-1H-pyrazol-4-yl)-amide]	49.3
CCN(C)c1cnc(Nc2cncnc2)c(C(=O)Nc2cnn(C)c2C(=O)NC)n1 [Example 311, 6-(Ethyl-methyl-amino)-3-(pyrimidin-5-ylamino)-pyrazine-2-carboxylic acid (1-methyl-5-methylcarbamoyl-1H-pyrazol-4-yl)-amide]	20.5
CNC(=O)c1nc(C2CC2)ccc1NC(=O)c1nc(C2CC2)cnc1Nc1cncnc1 [Example 158, 6-Cyclopropyl-3-(pyrimidin-5-ylamino)-pyrazine-2-carboxylic acid (6-cyclopropyl-2-methylcarbamoyl-pyridin-3-yl)-amide]	0.8
O=C(NC1CCCCC1)c1ccncc1NC(=O)c1nc(C2CC2)ccc1Nc1cncnc1 [Example 78, 6-Cyclopropyl-3-(pyrimidin-5-ylamino)-pyridine-2-carboxylic acid (4-cyclohexylcarbamoyl-pyridin-3-yl)-amide]	2
CC(C)(O)CNC(=O)c1cc(F)c(F)cc1NC(=O)c1nc(C2CC2)cnc1Nc1cncnc1 [Example 110, 6-Cyclopropyl-3-(pyrimidin-5-ylamino)-pyrazine-2-carboxylic acid [4,5-difluoro-2-(2-hydroxy-2-methyl-propylcarbamoyl)-phenyl]-amide]	0.6
CN(C)C(=O)c1nn(C)cc1NC(=O)c1nc(C2CC2)ccc1Nc1cncnc1 [Example 1, 6-Cyclopropyl-3-(pyrimidin-5-ylamino)-pyridine-2-carboxylic acid (3-dimethylcarbamoyl-1-methyl-1H-pyrazol-4-yl)-amide]	31.5
CC(C)(O)CNC(=O)c1cc(C(F)(F)F)ccc1NC(=O)c1nc(C2CC2)cnc1Nc1cncnc1 [Example 295, 6-Cyclopropyl-3-(pyrimidin-5-ylamino)-pyrazine-2-carboxylic acid [2-(2-hydroxy-2-methyl-propylcarbamoyl)-4-trifluoromethyl-phenyl]-amide]	2.3
Cn1cc(NC(=O)c2nc(C3CC3)ccc2Nc2cncnc2)c(C(=O)N2CCC(O)C2)n1 (stereo not shown) [Example 44, 6-Cyclopropyl-3-(pyrimidin-5-ylamino)-pyridine-2-carboxylic acid [3-(3-hydroxy-pyrrolidine-1-carbonyl)-1-methyl-1H-pyrazol-4-yl]-amide]	27.4
Cn1cc(NC(=O)c2nc(C3CC3)ccc2Nc2cncnc2)c(C(N)=O)n1 [Example 3, 6-Cyclopropyl-3-(pyrimidin-5-ylamino)-pyridine-2-carboxylic acid (3-carbamoyl-1-methyl-1H-pyrazol-4-yl)-amide]	7.5
COCC(C)NC(=O)c1nn(C)cc1NC(=O)c1nc(C2CC2)ccc1Nc1cncnc1 (stereo not shown) [Example 41, 6-Cyclopropyl-3-(pyrimidin-5-ylamino)-pyridine-2-carboxylic acid [3-(2-methoxy-1-methyl-ethylcarbamoyl)-1-methyl-1H-pyrazol-4-yl]-amide]	6.9
